Laboratory results taken from US8106055B2, “Substituted amide compounds” (Gruenenthal GmbH, priority 2007, dated 2012).

Assays:
human μ opiate receptor = biological target: T1, human μ opiate receptor (Homo sapiens, UniProt P35372); experiment: Affinity for the human μ opiate receptor ([3H]-naloxone displacement, CHO-K1 receptor membrane preparation, SPA); type: binding; settings: test concentration of 1 μM
T1 construct: purchased PerkinElmer Life Sciences, Zaventem, Belgium RB-HOM; host or cells: CHO-K1 cells (membrane preparation)
T1 sequence (P35372 whole entry): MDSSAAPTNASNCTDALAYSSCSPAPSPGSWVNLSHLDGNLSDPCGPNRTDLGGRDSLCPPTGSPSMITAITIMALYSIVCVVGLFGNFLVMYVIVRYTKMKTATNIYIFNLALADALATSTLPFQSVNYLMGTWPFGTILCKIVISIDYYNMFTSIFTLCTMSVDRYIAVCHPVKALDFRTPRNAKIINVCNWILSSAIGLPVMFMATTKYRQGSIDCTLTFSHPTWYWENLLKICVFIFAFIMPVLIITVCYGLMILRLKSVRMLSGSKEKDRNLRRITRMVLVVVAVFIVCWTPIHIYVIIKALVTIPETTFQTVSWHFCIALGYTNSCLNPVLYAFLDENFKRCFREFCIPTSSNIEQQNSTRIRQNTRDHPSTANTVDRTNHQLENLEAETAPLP
Method in brief: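 Test compounds, 1 nmol/l [3H]-naloxone and CHO-K1 membranes bearing the human μ opiate receptor are combined with WGA-SPA beads. After 90 minutes at room temperature, plates are centrifuged and radioactivity counted. Specific-binding inhibition at 1 μmol/l is given in percent.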

[1] = biological target: T2, bradykinin 1 receptor (B1R) of the rat (Rattus norvegicus, UniProt P97583); experiment: Functional investigation on the rat bradykinin 1 receptor (B1R), Ca2+ FLIPR assay in CHO K1 rB1R cells; type: cell-based; settings: B1R antagonism rat; test substance 10 μM; Ca2+ FLIPR, CHO K1 rB1R cells
T2 construct: expressed in transfected cells; host or cells: CHO K1 cells
T2 sequence (P97583 1-337): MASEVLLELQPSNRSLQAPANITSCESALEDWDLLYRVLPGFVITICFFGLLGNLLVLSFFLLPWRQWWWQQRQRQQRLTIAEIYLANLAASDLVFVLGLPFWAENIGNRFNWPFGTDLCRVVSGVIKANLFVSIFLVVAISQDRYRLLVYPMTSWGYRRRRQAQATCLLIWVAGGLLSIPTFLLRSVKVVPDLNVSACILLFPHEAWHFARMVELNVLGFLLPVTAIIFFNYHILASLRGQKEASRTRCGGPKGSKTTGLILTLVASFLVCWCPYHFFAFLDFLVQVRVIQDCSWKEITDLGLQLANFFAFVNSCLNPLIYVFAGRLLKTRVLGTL
Method in brief: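 Fluo-4 Ca2+ readout, peak fluorescence. Stable CHO K1 transfectants; compound pre-incubated 10-20 min, then EC80 agonist—Lys-Des-Arg9-BK for hB1R, Des-Arg9-BK for rB1R. % inhibition vs maximal inhibition; IC50 from multiple concentrations, duplicate/triplicate, ≥2 independent runs.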

SMILES	μ (binding on the μ opioid receptor, % inhibition) (human μ opiate receptor) [%]	B1R Ant. r [10 μM] % Inhibition [1] [%]
CN(C)C(c1ccc(F)cc1)C1CCC(CNC(=O)COCCN(C)S(=O)(=O)c2c(Cl)cccc2Cl)CC1 (stereo not shown) [Example 334]	66	83
Cc1ccc(S(=O)(=O)N(C)CCOCC(=O)NCC2CCC(C(c3ccc(F)cc3)N(C)C)CC2)cc1 (stereo not shown) [Example 362]	54	3
CN(C)C(c1cccs1)C1CCC(NC(=O)COCCN(C)S(=O)(=O)c2ccc(OC(F)(F)F)cc2)CC1 (stereo not shown) [Example 282]	74	20
CN(C)C(c1cccc(F)c1)C1CCC(NC(=O)COC2CCN(S(=O)(=O)c3ccc(Cl)cc3Cl)C2)CC1 (stereo not shown) [Example 283]	74	24
COc1cc(C)c(S(=O)(=O)N(CCOCC(=O)NCCC2CCC(C(c3cccc(F)c3)N(C)C)CC2)Cc2ccccc2)c(C)c1 (stereo not shown) [Example 358]	71	27
COc1cc(C)c(S(=O)(=O)N(C)CCOCC(=O)NCC2CCC(C(c3ccc(Cl)cc3)N(C)C)CC2)c(C)c1 (stereo not shown) [Example 348]	61	99
COc1ccc(S(=O)(=O)N2CCCCC2COCC(=O)NCC2CCC(C(c3ccc(F)cc3)N(C)C)CC2)cc1 (stereo not shown) [Example 345]	64	77
CN(C)C(c1cccs1)C1CCC(NC(=O)COCCN2CCN(S(=O)(=O)c3ccccc3)CC2)CC1 (stereo not shown) [Example 341]	64	18
COc1ccc(S(=O)(=O)N(C)CCOCC(=O)NCCC2CCC(C(c3cccc(F)c3)N(C)C)CC2)cc1OC (stereo not shown) [Example 293]	75	2
CN(C)C(c1ccc(F)cc1)C1CCC(CCNC(=O)COCCN(C)S(=O)(=O)c2c(Cl)cccc2Cl)CC1 (stereo not shown) [Example 285]	69	75
CCN(CCOCC(=O)NCC1CCC(C(c2ccc(F)cc2)N(C)C)CC1)S(=O)(=O)c1c(C)cc(OC)c(C)c1C (stereo not shown) [Example 327]	67	68
Cc1ccc(S(=O)(=O)N2CCC(OCC(=O)NCC3CCC(C(c4ccc(Cl)cc4)N(C)C)CC3)C2)cc1 (stereo not shown) [Example 304]	64	19
CN(C)C(c1ccc(F)cc1)C1CCC(NC(=O)COCC2CCCN2S(=O)(=O)c2ccc(Cl)c(Cl)c2)CC1 (stereo not shown) [Example 344]	64	12
COc1ccc(S(=O)(=O)N2CCC(OCC(=O)NC3CCC(C(c4cccc(F)c4)N(C)C)CC3)C2)cc1OC (stereo not shown) [Example 323]	67	23
CN(C)C(c1ccc(Cl)cc1)C1CCC(CCNC(=O)COCCN(C)S(=O)(=O)c2cccc(C(F)(F)F)c2)CC1 (stereo not shown) [Example 289]	67	13
COc1ccc(S(=O)(=O)N(C)CCOCC(=O)NCC2CCC(C(c3ccc(Cl)cc3)N(C)C)CC2)cc1 (stereo not shown) [Example 324]	62	48
COc1ccc(S(=O)(=O)N2CCCCC2COCC(=O)NCC2CCC(C(c3ccc(Cl)cc3)N(C)C)CC2)c(OC)c1 (stereo not shown) [Example 280]	73	36
CN(C)C(c1ccc(Cl)cc1)C1CCC(CNC(=O)COCCN(C)S(=O)(=O)c2cccc(C(F)(F)F)c2)CC1 (stereo not shown) [Example 314]	64	13
CN(C)C(c1cccc(F)c1)C1CCC(CCNC(=O)COCC2CCCN(S(=O)(=O)c3ccccc3)C2)CC1 (stereo not shown) [Example 295]	71	44

SMILES	μ (binding on the μ opioid receptor, % inhibition) (human μ opiate receptor) [%]	B1R Ant. r [10 μM] % Inhibition [1] [%]
COc1ccc(S(=O)(=O)N2CCCC2COCC(=O)NCCC2CCC(C(c3ccc(Cl)cc3)N(C)C)CC2)cc1 (stereo not shown) [Example 346]	63	45
CN(C)C(c1ccc(F)cc1)C1CCC(NC(=O)COCCN(Cc2ccccc2)S(=O)(=O)c2ccccc2)CC1 (stereo not shown) [Example 336]	59	8
CN(C)C(c1ccc(F)cc1)C1CCC(NC(=O)COCCN(C)S(=O)(=O)c2ccc(Cl)cc2Cl)CC1 (stereo not shown) [Example 356]	55	43
CN(C)C(c1ccc(Cl)cc1)C1CCC(CNC(=O)COC2CCN(S(=O)(=O)c3ccccc3)C2)CC1 (stereo not shown) [Example 299]	63	−13
CN(C)C(c1ccc(Cl)cc1)C1CCC(CNC(=O)COCC2CCCN(S(=O)(=O)c3ccccc3)C2)CC1 (stereo not shown) [Example 294]	63	32
CN(C)C(c1ccc(Cl)cc1)C1CCC(CNC(=O)COC2CCN(S(=O)(=O)c3cccc(C(F)(F)F)c3)C2)CC1 (stereo not shown) [Example 331]	61	44
COc1ccc(S(=O)(=O)N2CCCCC2COCC(=O)NCCC2CCC(C(c3ccc(F)cc3)N(C)C)CC2)cc1 (stereo not shown) [Example 349]	66	77
CN(C)C(c1cccc(F)c1)C1CCC(CCNC(=O)COCCN(Cc2ccccc2)S(=O)(=O)c2ccccc2)CC1 (stereo not shown) [Example 278]	77	7
CN(C)C(c1cccc(F)c1)C1CCC(CNC(=O)COCCC2CCN(S(=O)(=O)c3ccccc3)CC2)CC1 (stereo not shown) [Example 333]	65	15
COc1ccc(S(=O)(=O)N2Cc3ccccc3CC2COCC(=O)NCC2CCC(C(c3ccc(F)cc3)N(C)C)CC2)cc1 (stereo not shown) [Example 288]	65	20
Cc1ccc(S(=O)(=O)N(C)CCOCC(=O)NCCC2CCC(C(c3ccc(Cl)cc3)N(C)C)CC2)cc1 (stereo not shown) [Example 306]	60	14
COc1ccc(S(=O)(=O)N2CCCC2COCC(=O)NCC2CCC(C(c3cccc(F)c3)N(C)C)CC2)cc1 (stereo not shown) [Example 313]	71	31
Cc1ccc(S(=O)(=O)N2CCC(OCC(=O)NCCC3CCC(C(c4ccc(Cl)cc4)N(C)C)CC3)C2)cc1 (stereo not shown) [Example 305]	63	29
COc1ccc(S(=O)(=O)N2CCCCC2COCC(=O)NC2CCC(C(c3cccc(F)c3)N(C)C)CC2)cc1OC (stereo not shown) [Example 352]	65	−13
COc1ccc(S(=O)(=O)N(C)CCOCC(=O)NCCC2CCC(C(c3ccc(Cl)cc3)N(C)C)CC2)cc1OC (stereo not shown) [Example 339]	63	31
COc1ccc(S(=O)(=O)N(C)CCOCC(=O)NCCC2CCC(C(c3cccc(F)c3)N(C)C)CC2)cc1 (stereo not shown) [Example 292]	74	34
COc1cc(C)c(S(=O)(=O)N2CCC(OCC(=O)NC3CCC(C(c4cccc(F)c4)N(C)C)CC3)CC2)c(C)c1C (stereo not shown) [Example 286]	76	−2
CN(C)C(c1ccc(F)cc1)C1CCC(CNC(=O)COCCN(Cc2ccccc2)S(=O)(=O)c2ccccc2)CC1 (stereo not shown) [Example 342]	57	−20
COc1ccc(S(=O)(=O)N(C)CCOCC(=O)NCC2CCC(C(c3cccc(F)c3)N(C)C)CC2)cc1 (stereo not shown) [Example 340]	69	23
